Measured values published in patent US10322143B2, “Inhibitors of ADAMTS4 or ADAMTS5 for use in preventing or treating cardiac remodeling and chronic heart failure” (Universitetet i Oslo, priority 2013, dated 2019).
Marks after values point to notes of the source that are not given here.

How the values were obtained:
[1] = biological target: ADAMTS4 (Rattus norvegicus (Rat), UniProt Q9ESP7); test: ADAMTS4 protein level in myocardial protein fractions (immunoblotting), aortic banding rats; assay type: in vivo; settings: AB-rats after PPS-treatment
Description: Three days after AB, rats were stratified by the gradient over the stenosis to ensure similar degree of cardiac stress. Two and two stratified rats were randomized to either 6 mg/kg of the sulfated polysaccharide sodium pentosan polysulfate (PPS) (Interfarm AS, Norway) or vehicle (0.9% NaCl) injected subcutaneously every third day. […] Six weeks after AB or sham operation, the rats were examined by echocardiography and postmortem analysis, performed by experienced investigators (IS, JMA) blinded to treatment group.
Proteins from rat myocardium were extracted as previously described (Didangelos et al. J Biol Chem 2012. 287(23):19341-5). […]
Protein concentrations were measured using the Micro BCA Protein Assay Kit (Pierce/Thermo Scientific, IL). […]
Membranes were blocked in 5% non-fat dry-milk (170-6404, BioRad) overnight. […] Primary antibodies used were against ADAMTS4 (PA1-1750, Thermo Pierce Scientific, IL), versican full length (sc-25831, Santa Cruz Biotechnology, CA) and versican fragments displaying the neo-epitope DPEEAE (ab19345, Abcam, Cambrigde, UK) resulting from ADAMTS cleavage by ADAMTS1/4 (Sandy J D et al. J Biol Chem 2001. 276(16):13372-8; Didangelos A et al. supra), and quantified by ImageJ.

[2] = system: myocardial infarction rats; test: Myocardial infarction rat model: echocardiography, MRI and organ weights after PPS-treatment; assay type: in vivo; settings: for EDV (end-diastolic volume, MRI) / Heart weight / LAD (left atrial diameter) / LVDd (left ventricular diameter at diastole) / Lung weight / Max. syst velocity (maximum systolic velocity) / RV weight / VTI (velocity time integral): median (interquartile range)
Description: Male Wistar rats weighing 160-170 grams (approximately 7 weeks old) (Taconic, Skensved Denmark) underwent MI (myocardial infarction) by left coronary artery ligation as described previously (Sjaastad I, et al. J Appl Physiol 2000 October; 89(4):1445-54). In all surgical procedures performed, a mixture of 67% N2O, 28% O2, and 4% isoflurane in an anesthesia chamber was used for preoperative sedation. To maintain anesthesia preoperatively, a mixture of 69% N2O, 29% O2, and 2% isoflurane was given by the endotracheal tube and the animals were ventilated on a respirator (Zoovent, Triumph Technical Services, Milton Keynes, UK). Buprenorphine (0.2 mg/kg) was given as postoperative analgesia after MI. Rats were housed in cages (one or two rats in each cage) with Bee Kay bedding (Scanbur B K, Nittedal, Norway) in 55% humidity on a 12 h light/dark cycle, with food pellets (RM1, 801151, Scanbur B K) and water ad libitum.
At day 0 to 3 (median 2) after surgery, infarct size was quantified by echocardiography using the Vevo2100 system (Visualsonics Inc, Canada) and magnetic resonance imaging (MRi) using a 9.4 T/210 mm/ASR horizontal bore magnet (Agilent Technologies, Inc., USA). Initially, echocardiography was performed to select moderate to large infarcts ranging approximately 40 to 50%. Thereafter, infarct sizes were exactly measured by late-enhancement gadolinium MRi analyses (Bohl S., et al. American Journal of Physiology, 2009; 296 (4): H1200-H1208) and stratified into small infarcts (stratum 1: <43%, stratum 2: 43-48%), and large infarcts (stratum 3: 48-53%, stratum 4: >53%). The rats in each MI stratum and sham group were randomized to receive intervention or control treatment. The intervention group was treated with 6 mg/kg of sodium PPS (Interfarm AS, Norway), while the control group received vehicle (0.9% NaCl), both injected subcutaneously every third day starting from post-operative day 8-10.
After receiving PPS- or vehicle-treatment for 51 to 56 days (median 55 days), rats were sacrificed after examination by experienced investigators blinded to treatment group. In vivo heart function was evaluated as previously described with echocardiography (Sjaastad I, et al., J Appl Physiol 2000 October; 89(4):1445-54) and MRi (Espe E., Journal of Cardiovascular Magnetic Resonance 2013; 15(1):82). Thereafter, the heart and lung was excised under deep anesthesia, washed in saline and blotted dry to remove blood in the cardiac chambers. The heart chambers were separated by rapid dissection, before left ventricles were divided into infarcted and viable tissue. Lungs and cardiac tissue were snap-frozen in liquid nitrogen and stored at −70° C. until RNA and protein analyses.

[3] = MI strata 1 + 2 (small infarcts) PPS, 6 mg/kg s.c. every third day from day 8-10
[4] = MI strata 3 + 4 (large infarcts) PPS, 6 mg/kg s.c. every third day from day 8-10
[5] = Sham PPS, 6 mg/kg s.c. every third day
[6] = rats with large infarcts, PPS vs vehicle

Substance: pentosan polysulfate [PPS]
- level of ADAMTS4 in the protein fractions [1]: not altered
- side effects including hemorrhage ([2]; MI rats, 6 mg/kg s.c. every third day, observed daily): no side effects
- EDV (end-diastolic volume, MRI) [2, 3]: 614 (524-707)
- Heart weight [2, 3]: 1610 (1450-1760) mg
- LAD (left atrial diameter) [2, 3]: 5.32 (4.25-6.50) mm
- LVDd (left ventricular diameter at diastole) [2, 3]: 9.91 (9.50-10.29) mm
- Lung weight [2, 3]: 1930 (1450-3420) mg
- Max. syst velocity (maximum systolic velocity) [2, 3]: 39.7 (28.3-57.5)
- RV weight [2, 3]: 300 (180-345) mg
- VTI (velocity time integral) [2, 3]: 57.9 (50.8-69.6) mm
- EDV (end-diastolic volume, MRI) [2, 4]: 644 (552-709)
- Heart weight [2, 4]: 1595 (1475-1710) mg
- LAD (left atrial diameter) [2, 4]: 6.88 (5.51-7.31) mm
- LVDd (left ventricular diameter at diastole) [2, 4]: 10.25 (9.51-10.75) mm
- Lung weight [2, 4]: 2770 (1990-3385) mg
- Max. syst velocity (maximum systolic velocity) [2, 4]: 41.7 (31.2-52.0)*
- RV weight [2, 4]: 395 (355-523) mg
- VTI (velocity time integral) [2, 4]: 69.8 (51.1-75.9)* mm
- EDV (end-diastolic volume, MRI) [2, 5]: 293 (256-346)
- Heart weight [2, 5]: 1005 (980-1248) mg
- LAD (left atrial diameter) [2, 5]: 3.67 (3.45-3.73) mm
- LVDd (left ventricular diameter at diastole) [2, 5]: 6.91 (6.60-7.88) mm
- Lung weight [2, 5]: 1255 (1158-1280) mg
- Max. syst velocity (maximum systolic velocity) [2, 5]: 64.0 (46.6-67.2)
- RV weight [2, 5]: 168 (160-208) mg
- VTI (velocity time integral) [2, 5]: 58.5 (53.9-65.5) mm
- reduction in heart weight ([2]; rats with large infarcts, PPS vs corresponding vehicle-treated rats): ~25%
- maximum systolic velocity after PPS-treatment [2, 6]: improved
- reduction in left atrial diameter [2, 6]: 10%
- reduction in lung weight [2, 6]: 1/3
- velocity time integral after PPS-treatment [2, 6]: improved
